Tested on: OCI-AML3 cells
Assay: In vitro proliferation (Cell Titer Glo, 6 days) of Compound 51 in combination with idarubicin or decitabine, OCI-AML3
Type: cell-based, human
Conditions: for combination effect on proliferation (cytotoxicity): OCI-AML3 (NPM1c)
Method: 3) In Vitro Proliferation—Menin-MLL Inhibitor in Combination with FLT3 Inhibitor (Gilteritinib or Midostaurin), DNA Intercalating Agent (Idarubicin) or Hypomethylating Agent (Decitabine)
The effect of Compound 51 in combination with gilteritinib, midostaurin, idarubicin or decitabine was determined in proliferation assays.
AML cell lines MOLM-13, OCI-AML3 and MV4-11 were purchased from DSMZ. MOLM-13 were grown in RPMI medium supplemented with 10% Fetal Bovine Serum (FBS) and 1% penicillin/streptomycin. MV4-11 cells were grown in IMDM medium supplemented with 10% FBS and 1% penicillin/streptomycin. OCI-AML3 cells were cultured in 80-90% alpha-MEM (with or without ribo- and deoxyribonucleosides)+10-20% FBS. All cell lines were cultured at 37° C. in 5% CO2 atmosphere.
AML cell lines (10-20×10^3 cells/well) were seeded in 96-well plates and grown for 6 days in serum (10%)-containing medium in the presence or absence of inhibitors at the indicated concentrations. Proliferation was analyzed by means of a Cell Titer Glo assay using the […] (Promega, Madison, WI, USA), according to the manufacturer's instructions. Data are mean with standard deviation from two to four independent experiments in technical triplicates.
R-based Biochemically Intuitive Generalized Loewe (BIGL) model implemented with a highest single agent (HSA) null model. Specifically, the BIGL methodology was applied to calculate drug-drug interactions (Van der Borght, K., Tourny, A., Bagdziunas, R. et al. BIGL: Biochemically Intuitive Generalized Loewe null model for prediction of the expected combined effect compatible with partial agonism and antagonism. Sci Rep 7, 17935 (2017); Thas, O., Tourny, A., Verbist, B., Hawinkel, S., Nazarov, M., Mutambanengwe, K., & Bijnens, L. Statistical detection of synergy: New methods and a comparative study. Pharmaceutical Statistics (2021)).
Synergy matrix results of the BIGL analysis of the cell line data with HSA as mean model calculated on the basis of the cellular metabolic activity using Cell Titer-Glo assay. Bootstrap confidence intervals are indicated. Effect sizes and their confidence intervals are shown. […] No significant average effect if zero is included in the interval.

SMILES: CC(=O)N1CCC(CN2CC[C@@H](Cc3cn(-c4ccc(F)cc4C(=O)N(C)C(C)C)c4cncc(C)c34)C2)CC1 [Compound 51]
- Effect size (BIGL, HSA null model), OCI-AML3 Cell Proliferation (Compound 51 0.001 μm + Decitabine 0.0015 μM): −0.02
- Effect size (BIGL, HSA null model), OCI-AML3 Cell Proliferation (Compound 51 0.001 μm + Decitabine 0.015 μM): −0.06
- Effect size (BIGL, HSA null model), OCI-AML3 Cell Proliferation (Compound 51 0.001 μm + Decitabine 0.35 μM): −0.04
- Effect size (BIGL, HSA null model), OCI-AML3 Cell Proliferation (Compound 51 0.001 μm + Decitabine 3 μM): 0.01
- Effect size (BIGL, HSA null model), OCI-AML3 Cell Proliferation (Compound 51 0.001 μm + Decitabine 3.5 μM): −0.02
- Effect size (BIGL, HSA null model), OCI-AML3 Cell Proliferation (Compound 51 0.001 μm + Idarubicin 0.0005 μM): −0.02
- Effect size (BIGL, HSA null model), OCI-AML3 Cell Proliferation (Compound 51 0.001 μm + Idarubicin 0.00625 μM): 0
- Effect size (BIGL, HSA null model), OCI-AML3 Cell Proliferation (Compound 51 0.001 μm + Idarubicin 0.0125 μM): 0.02
- Effect size (BIGL, HSA null model), OCI-AML3 Cell Proliferation (Compound 51 0.001 μm + Idarubicin 0.025 μM): 0
- Effect size (BIGL, HSA null model), OCI-AML3 Cell Proliferation (Compound 51 0.001 μm + Idarubicin 0.05 μM): −0.01
- Effect size (BIGL, HSA null model), OCI-AML3 Cell Proliferation (Compound 51 0.001 μm + Idarubicin 0.5 μM): −0.01
- Effect size (BIGL, HSA null model), OCI-AML3 Cell Proliferation (Compound 51 0.01 μm + Decitabine 0.0015 μM): −0.01
- Effect size (BIGL, HSA null model), OCI-AML3 Cell Proliferation (Compound 51 0.01 μm + Decitabine 0.015 μM): −0.1
- Effect size (BIGL, HSA null model), OCI-AML3 Cell Proliferation (Compound 51 0.01 μm + Decitabine 0.35 μM): −0.07
- Effect size (BIGL, HSA null model), OCI-AML3 Cell Proliferation (Compound 51 0.01 μm + Decitabine 3 μM): 0
- Effect size (BIGL, HSA null model), OCI-AML3 Cell Proliferation (Compound 51 0.01 μm + Decitabine 3.5 μM): −0.02
- Effect size (BIGL, HSA null model), OCI-AML3 Cell Proliferation (Compound 51 0.01 μm + Idarubicin 0.0005 μM): 0.05
- Effect size (BIGL, HSA null model), OCI-AML3 Cell Proliferation (Compound 51 0.01 μm + Idarubicin 0.00625 μM): −0.02
- Effect size (BIGL, HSA null model), OCI-AML3 Cell Proliferation (Compound 51 0.01 μm + Idarubicin 0.0125 μM): 0.01
- Effect size (BIGL, HSA null model), OCI-AML3 Cell Proliferation (Compound 51 0.01 μm + Idarubicin 0.025 μM): 0
- Effect size (BIGL, HSA null model), OCI-AML3 Cell Proliferation (Compound 51 0.01 μm + Idarubicin 0.05 μM): −0.01
- Effect size (BIGL, HSA null model), OCI-AML3 Cell Proliferation (Compound 51 0.01 μm + Idarubicin 0.5 μM): −0.01
- Effect size (BIGL, HSA null model), OCI-AML3 Cell Proliferation (Compound 51 0.05 μm + Decitabine 0.0015 μM): 0
- Effect size (BIGL, HSA null model), OCI-AML3 Cell Proliferation (Compound 51 0.05 μm + Decitabine 0.015 μM): 0
- Effect size (BIGL, HSA null model), OCI-AML3 Cell Proliferation (Compound 51 0.05 μm + Decitabine 0.35 μM): −0.1
- Effect size (BIGL, HSA null model), OCI-AML3 Cell Proliferation (Compound 51 0.05 μm + Decitabine 3 μM): 0
- Effect size (BIGL, HSA null model), OCI-AML3 Cell Proliferation (Compound 51 0.05 μm + Decitabine 3.5 μM): −0.03
- Effect size (BIGL, HSA null model), OCI-AML3 Cell Proliferation (Compound 51 0.05 μm + Idarubicin 0.0005 μM): 0.04
- Effect size (BIGL, HSA null model), OCI-AML3 Cell Proliferation (Compound 51 0.05 μm + Idarubicin 0.00625 μM): −0.04
- Effect size (BIGL, HSA null model), OCI-AML3 Cell Proliferation (Compound 51 0.05 μm + Idarubicin 0.0125 μM): 0
- Effect size (BIGL, HSA null model), OCI-AML3 Cell Proliferation (Compound 51 0.05 μm + Idarubicin 0.025 μM): −0.01
- Effect size (BIGL, HSA null model), OCI-AML3 Cell Proliferation (Compound 51 0.05 μm + Idarubicin 0.05 μM): −0.01
- Effect size (BIGL, HSA null model), OCI-AML3 Cell Proliferation (Compound 51 0.05 μm + Idarubicin 0.5 μM): −0.01
- Effect size (BIGL, HSA null model), OCI-AML3 Cell Proliferation (Compound 51 0.1 μm + Decitabine 0.0015 μM): 0.01
- Effect size (BIGL, HSA null model), OCI-AML3 Cell Proliferation (Compound 51 0.1 μm + Decitabine 0.015 μM): 0.08
- Effect size (BIGL, HSA null model), OCI-AML3 Cell Proliferation (Compound 51 0.1 μm + Decitabine 0.35 μM): −0.07
- Effect size (BIGL, HSA null model), OCI-AML3 Cell Proliferation (Compound 51 0.1 μm + Decitabine 3 μM): 0
- Effect size (BIGL, HSA null model), OCI-AML3 Cell Proliferation (Compound 51 0.1 μm + Decitabine 3.5 μM): −0.02
- Effect size (BIGL, HSA null model), OCI-AML3 Cell Proliferation (Compound 51 0.1 μm + Idarubicin 0.0005 μM): 0.01
- Effect size (BIGL, HSA null model), OCI-AML3 Cell Proliferation (Compound 51 0.1 μm + Idarubicin 0.00625 μM): −0.05
- Effect size (BIGL, HSA null model), OCI-AML3 Cell Proliferation (Compound 51 0.1 μm + Idarubicin 0.0125 μM): 0
- Effect size (BIGL, HSA null model), OCI-AML3 Cell Proliferation (Compound 51 0.1 μm + Idarubicin 0.025 μM): 0
- Effect size (BIGL, HSA null model), OCI-AML3 Cell Proliferation (Compound 51 0.1 μm + Idarubicin 0.05 μM): −0.01
- Effect size (BIGL, HSA null model), OCI-AML3 Cell Proliferation (Compound 51 0.1 μm + Idarubicin 0.5 μM): −0.01
- Effect size (BIGL, HSA null model), OCI-AML3 Cell Proliferation (Compound 51 1 μm + Decitabine 0.0015 μM): 0.02
- Effect size (BIGL, HSA null model), OCI-AML3 Cell Proliferation (Compound 51 1 μm + Decitabine 0.015 μM): 0.13
- Effect size (BIGL, HSA null model), OCI-AML3 Cell Proliferation (Compound 51 1 μm + Decitabine 0.35 μM): 0.01
- Effect size (BIGL, HSA null model), OCI-AML3 Cell Proliferation (Compound 51 1 μm + Decitabine 3 μM): 0
- Effect size (BIGL, HSA null model), OCI-AML3 Cell Proliferation (Compound 51 1 μm + Decitabine 3.5 μM): −0.02
- Effect size (BIGL, HSA null model), OCI-AML3 Cell Proliferation (Compound 51 1 μm + Idarubicin 0.0005 μM): −0.03
- Effect size (BIGL, HSA null model), OCI-AML3 Cell Proliferation (Compound 51 1 μm + Idarubicin 0.00625 μM): −0.06
- Effect size (BIGL, HSA null model), OCI-AML3 Cell Proliferation (Compound 51 1 μm + Idarubicin 0.0125 μM): 0
- Effect size (BIGL, HSA null model), OCI-AML3 Cell Proliferation (Compound 51 1 μm + Idarubicin 0.025 μM): −0.01
- Effect size (BIGL, HSA null model), OCI-AML3 Cell Proliferation (Compound 51 1 μm + Idarubicin 0.05 μM): −0.01
- Effect size (BIGL, HSA null model), OCI-AML3 Cell Proliferation (Compound 51 1 μm + Idarubicin 0.5 μM): −0.01
- Effect size (BIGL, HSA null model), OCI-AML3 Cell Proliferation (Compound 51 10 μm + Decitabine 0.0015 μM): 0.01
- Effect size (BIGL, HSA null model), OCI-AML3 Cell Proliferation (Compound 51 10 μm + Decitabine 0.015 μM): 0.1
- Effect size (BIGL, HSA null model), OCI-AML3 Cell Proliferation (Compound 51 10 μm + Decitabine 0.35 μM): −0.02
- Effect size (BIGL, HSA null model), OCI-AML3 Cell Proliferation (Compound 51 10 μm + Decitabine 3 μM): 0.01
- Effect size (BIGL, HSA null model), OCI-AML3 Cell Proliferation (Compound 51 10 μm + Decitabine 3.5 μM): −0.01
- Effect size (BIGL, HSA null model), OCI-AML3 Cell Proliferation (Compound 51 10 μm + Idarubicin 0.0005 μM): 0.04
- Effect size (BIGL, HSA null model), OCI-AML3 Cell Proliferation (Compound 51 10 μm + Idarubicin 0.00625 μM): −0.06
- Effect size (BIGL, HSA null model), OCI-AML3 Cell Proliferation (Compound 51 10 μm + Idarubicin 0.0125 μM): 0
- Effect size (BIGL, HSA null model), OCI-AML3 Cell Proliferation (Compound 51 10 μm + Idarubicin 0.025 μM): −0.01
- Effect size (BIGL, HSA null model), OCI-AML3 Cell Proliferation (Compound 51 10 μm + Idarubicin 0.05 μM): −0.01
- Effect size (BIGL, HSA null model), OCI-AML3 Cell Proliferation (Compound 51 10 μm + Idarubicin 0.5 μM): −0.01
- combination effect on proliferation (cytotoxicity) (in combination with decitabine, 6-day CellTiter-Glo matrix): not antagonistically cytotoxic
- combination effect on proliferation (cytotoxicity) (in combination with idarubicin, 6-day Cell Titer-Glo matrix): not antagonistically cytotoxic

Reference: patent US20260191835A1, “COMBINATIONS COMPRISING A MENIN-MLL INHIBITOR AND AT LEAST ONE OTHER THERAPEUTIC AGENT” (JANSSEN PHARMACEUTICA NV, priority 2022, published 2026)
